Source: US9833497B2, “Human originated EGF domain proteins and use of the same” (CHENGDU SOURCEBIO LIMITED-LIABILITY COMPANY, priority 2013, dated 2017)

What was measured:
Format in all cases: cell-based
Moraxella catarrhalis = test: MIC against Gram-negative bacteria: Moraxella catarrhalis; conditions: 5×10^5 CFU/mL; for MIC M. catarrhalis: two-fold serial dilution
In short: (§1)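 LB broth cultures at McFarland 0.5, spun down, resuspended, diluted to 5×10^5 CFU/mL final. Two-fold serial dilutions of purified human EGF domain proteins, triplicate. 37° C, 175 rpm shaking. Endpoint: no visible growth.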

Aeromonas hydrophila = test: MIC against Gram-negative bacteria: Aeromonas hydrophila; conditions: 5×10^5 CFU/mL; for MIC A. hydrophila: two-fold serial dilution
In short: as §1

Enterobacter cloacae = test: MIC against Gram-negative bacteria: Enterobacter cloacae; conditions: 5×10^5 CFU/mL; for MIC E. cloacae: two-fold serial dilution
In short: as §1

Citrobacter diversus = test: MIC against Gram-negative bacteria: Citrobacter diversus; conditions: 5×10^5 CFU/mL; for MIC C. diversus: two-fold serial dilution
In short: as §1

Proteus vulgaris = test: MIC against Gram-negative bacteria: Proteus vulgaris; conditions: 5×10^5 CFU/mL; for MIC P. vulgaris: two-fold serial dilution
In short: as §1

Proteus mirabilis = test: MIC against Gram-negative bacteria: Proteus mirabilis; conditions: 5×10^5 CFU/mL; for MIC P. mirabilis: two-fold serial dilution
In short: as §1

E. coli DH5α = test: Antibacterial activity: MIC and growth curve against E. coli DH5α in 96-well plate; conditions: minimal inhibitory concentration against E. coli DH5α; 96-well plate, 5×10^5 CFU/mL, 37° C., judged after 8 h
In short: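 Log-phase DH5α (OD600 about 0.5, 37° C, 185 rpm in LB) was pelleted, resuspended in fresh LB and seeded at 5×10^5 CFU/mL with recombinant protein at 50, 25 and 12.5 μg/mL (two-fold series), in triplicate. Plates were shaken at 175 rpm, 37° C, and OD600 was read every 30 min. MIC was the lowest concentration with no growth.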

E. coli BL21 = test: MIC against Gram-negative bacteria: E. coli BL21; conditions: 5×10^5 CFU/mL; for MIC E. coli BL21: two-fold serial dilution
In short: as §1

Serratia marcescens = test: MIC against Gram-negative bacteria: Serratia marcescens; conditions: 5×10^5 CFU/mL; for MIC S. marcescens: two-fold serial dilution
In short: as §1

Pseudomonas aeruginosa = test: MIC against Gram-negative bacteria: Pseudomonas aeruginosa; conditions: 5×10^5 CFU/mL; for MIC P. aeruginosa: two-fold serial dilution
In short: as §1

Klebsiella pneumonia = test: MIC against Gram-negative bacteria: Klebsiella pneumonia; conditions: 5×10^5 CFU/mL; for MIC K. pneumonia: two-fold serial dilution
In short: as §1

[1] = M. catarrhalis, 10 h cultivation at 37° C.
[2] = A. hydrophila, 10 h cultivation at 37° C.
[3] = E. cloacae, 10 h cultivation at 37° C.
[4] = C. diversus, 10 h cultivation at 37° C.
[5] = P. vulgaris, 10 h cultivation at 37° C.
[6] = P. mirabilis, 10 h cultivation at 37° C.
[7] = E. coli BL21, 10 h cultivation at 37° C.
[8] = S. marcescens, 10 h cultivation at 37° C.
[9] = P. aeruginosa, 10 h cultivation at 37° C.
[10] = K. pneumonia, 10 h cultivation at 37° C.
[11] = Moraxella catarrhalis, 96-well plate, 37° C., 10 h
[12] = Aeromonas hydrophila, 96-well plate, 37° C., 10 h
[13] = Enterobacter cloacae, 96-well plate, 37° C., 10 h
[14] = Citrobacter diversus, 96-well plate, 37° C., 10 h
[15] = Proteus vulgaris, 96-well plate, 37° C., 10 h
[16] = Proteus mirabilis, 96-well plate, 37° C., 10 h
[17] = E. coli BL21, 96-well plate, 37° C., 10 h
[18] = Serratia marcescens, 96-well plate, 37° C., 10 h
[19] = Pseudomonas aeruginosa, 96-well plate, 37° C., 10 h
[20] = Klebsiella pneumonia, 96-well plate, 37° C., 10 h

Substance	MIC M. catarrhalis (Moraxella catarrhalis; 10 h cultivation at 37° C.)	MIC A. hydrophila (Aeromonas hydrophila; 10 h cultivation at 37° C.)	MIC E. cloacae (Enterobacter cloacae; 10 h cultivation at 37° C.)	MIC C. diversus (Citrobacter diversus; 10 h cultivation at 37° C.)	MIC P. vulgaris (Proteus vulgaris; 10 h cultivation at 37° C.)	MIC P. mirabilis (Proteus mirabilis; 10 h cultivation at 37° C.)	MIC (E. coli DH5α)	MIC E. coli BL21 (E. coli BL21; 10 h cultivation at 37° C.)	MIC S. marcescens (Serratia marcescens; 10 h cultivation at 37° C.)	MIC P. aeruginosa (Pseudomonas aeruginosa; 10 h cultivation at 37° C.)	MIC K. pneumonia (Klebsiella pneumonia; 10 h cultivation at 37° C.)	MIC (μg/mL) M. catarrhalis (Moraxella catarrhalis; [1])	MIC (μg/mL) A. hydrophila (Aeromonas hydrophila; [2])	MIC (μg/mL) E. cloacae (Enterobacter cloacae; [3])	MIC (μg/mL) C. diversus (Citrobacter diversus; [4])	MIC (μg/mL) P. vulgaris (Proteus vulgaris; [5])	MIC (μg/mL) P. mirabilis (Proteus mirabilis; [6])	MIC (μg/mL) E. coli BL21 (E. coli BL21; [7])	MIC (μg/mL) S. marcescens (Serratia marcescens; [8])	MIC (μg/mL) P. aeruginosa (Pseudomonas aeruginosa; [9])	also measured
PRT1147 (ELDACSFKPCKNNGSCINKRENWDEQAYECVCHPPFTGKNCS; listed as Homo sapiens)	12.5 µg/mL	25 µg/mL	50 µg/mL	25 µg/mL	50 µg/mL	25 µg/mL	50 µg/mL	12.5 µg/mL	25 µg/mL	50 µg/mL	12.5 µg/mL										
PRT1146 (SIDNCAEPELNSVICLNGGICVDGPGHTFDCRCLPGFSGQFCE; listed as Homo sapiens)	50 µg/mL	12.5 µg/mL	50 µg/mL	25 µg/mL	50 µg/mL	12.5 µg/mL	50 µg/mL	25 µg/mL	12.5 µg/mL	12.5 µg/mL	25 µg/mL										
PRT751 (LCATGDHDCEQVCISSPGSYTCACHEGFTLNSDGKTCN; listed as Homo sapiens)							12.5 µg/mL					25 µg/mL	25 µg/mL	50 µg/mL	12.5 µg/mL	25 µg/mL	50 µg/mL	25 µg/mL	12.5 µg/mL	50 µg/mL	MIC (μg/mL) K. pneumonia (Klebsiella pneumonia; [10]): 12.5 µg/mL
PRT808 (YGPNCSSICSCNNGGTCSPVDGSCTCKEGWQGLDCT; listed as Homo sapiens)							25 µg/mL					50 µg/mL	12.5 µg/mL	25 µg/mL	25 µg/mL	12.5 µg/mL	25 µg/mL	50 µg/mL	50 µg/mL	12.5 µg/mL	MIC (μg/mL) K. pneumonia (Klebsiella pneumonia; [10]): 50 µg/mL
PRT1313 (VADLCQDGHGGCSEHANCSQVGTMVTCTCLPDYEGDGWSCR; listed as Homo sapiens)							12.5 µg/mL														MIC against M. catarrhalis (Moraxella catarrhalis; [11]): 12.5 µg/mL; MIC against A. hydrophila (Aeromonas hydrophila; [12]): 25 µg/mL; MIC against E. cloacae (Enterobacter cloacae; [13]): 12.5 µg/mL; MIC against C. diversus (Citrobacter diversus; [14]): 50 µg/mL; MIC against P. vulgaris (Proteus vulgaris; [15]): 12.5 µg/mL; MIC against P. mirabilis (Proteus mirabilis; [16]): 50 µg/mL; MIC against E. coli BL21 (E. coli BL21; [17]): 25 µg/mL; MIC against S. marcescens (Serratia marcescens; [18]): 50 µg/mL; MIC against P. aeruginosa (Pseudomonas aeruginosa; [19]): 50 µg/mL; MIC against K. pneumonia (Klebsiella pneumonia; [20]): 25 µg/mL
PRT31 (CDCYPVGSTSRSCAPHSGQCPCRPGALGRQCNSCDSPFAEVTASGC; listed as Homo sapiens)							25 µg/mL														MIC (μg/mL) M. catarrhalis (Moraxella catarrhalis; [11]): 12.5 µg/mL; MIC (μg/mL) A. hydrophila (Aeromonas hydrophila; [12]): 25 µg/mL; MIC (μg/mL) E. cloacae (Enterobacter cloacae; [13]): 12.5 µg/mL; MIC (μg/mL) C. diversus (Citrobacter diversus; [14]): 12.5 µg/mL; MIC (μg/mL) P. vulgaris (Proteus vulgaris; [15]): 50 µg/mL; MIC (μg/mL) P. mirabilis (Proteus mirabilis; [16]): 25 µg/mL; MIC (μg/mL) E. coli BL21 (E. coli BL21; [17]): 12.5 µg/mL; MIC (μg/mL) S. marcescens (Serratia marcescens; [18]): 25 µg/mL; MIC (μg/mL) P. aeruginosa (Pseudomonas aeruginosa; [19]): 12.5 µg/mL; MIC (μg/mL) K. pneumonia (Klebsiella pneumonia; [20]): 25 µg/mL
